Measurements: patent publication US5171750A (priority 1991, dated 1992)
Where two headings read alike, the source gives them in different places.

Experiments:
[1] = tested on: neuromuscular AChR; details: cited from earlier work
[2] = biological target: plasma BChE (Homo sapiens, UniProt P06276); test: biochemical
[3] = biological target: human erythrocyte AChE (Homo sapiens, UniProt P22303); test: biochemical; type: biochemical
Sequence of human erythrocyte AChE (P22303-2 with tags, fused parts or gaps limits assumed): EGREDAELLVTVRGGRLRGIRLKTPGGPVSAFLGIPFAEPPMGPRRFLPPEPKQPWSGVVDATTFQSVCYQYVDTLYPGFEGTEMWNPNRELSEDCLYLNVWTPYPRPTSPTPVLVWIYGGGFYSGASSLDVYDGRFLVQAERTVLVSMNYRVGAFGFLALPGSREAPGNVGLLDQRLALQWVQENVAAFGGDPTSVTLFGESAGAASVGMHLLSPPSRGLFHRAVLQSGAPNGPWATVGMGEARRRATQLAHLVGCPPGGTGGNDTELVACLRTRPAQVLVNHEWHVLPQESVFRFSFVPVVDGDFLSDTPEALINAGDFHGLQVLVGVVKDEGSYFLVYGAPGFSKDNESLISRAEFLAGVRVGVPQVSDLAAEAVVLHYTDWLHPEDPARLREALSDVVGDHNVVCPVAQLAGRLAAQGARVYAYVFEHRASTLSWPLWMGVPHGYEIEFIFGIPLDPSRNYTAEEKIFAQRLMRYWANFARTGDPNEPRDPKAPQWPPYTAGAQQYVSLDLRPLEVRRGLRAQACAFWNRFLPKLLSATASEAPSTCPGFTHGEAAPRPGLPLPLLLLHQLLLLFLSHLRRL

Sequence of plasma BChE (P06276 29-602): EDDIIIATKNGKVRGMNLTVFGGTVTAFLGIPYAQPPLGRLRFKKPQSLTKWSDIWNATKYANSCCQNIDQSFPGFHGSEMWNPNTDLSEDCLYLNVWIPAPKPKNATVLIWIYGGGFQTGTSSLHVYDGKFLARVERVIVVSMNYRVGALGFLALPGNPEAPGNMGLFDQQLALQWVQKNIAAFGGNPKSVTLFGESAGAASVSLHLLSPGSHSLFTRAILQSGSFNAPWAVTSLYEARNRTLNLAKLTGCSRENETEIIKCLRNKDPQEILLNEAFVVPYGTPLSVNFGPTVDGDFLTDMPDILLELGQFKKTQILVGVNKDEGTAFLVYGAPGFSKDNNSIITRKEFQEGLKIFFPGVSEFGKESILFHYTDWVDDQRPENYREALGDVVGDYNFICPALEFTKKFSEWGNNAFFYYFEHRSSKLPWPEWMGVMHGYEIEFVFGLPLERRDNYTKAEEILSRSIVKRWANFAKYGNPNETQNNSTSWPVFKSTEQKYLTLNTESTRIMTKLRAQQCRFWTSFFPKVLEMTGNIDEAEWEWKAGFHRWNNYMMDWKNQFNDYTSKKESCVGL

SMILES	IC50 [2]	IC50 ([3]; pH 8, read-out: AChE IC50)	IC50 ([2]; pH 8, read-out: BChE IC50)	also measured
CNC(=O)Oc1ccc2c(c1)[C@]1(C)CCN(C)[C@@H]1N2C [(1) (-)-physostigmne, (-)-physostigmine]	–	–	–	properties at the neuromuscular AChR, in words [1]: blocking properties as well as agonist properties at the neuromuscular AChR
CNC(=O)Oc1ccc2c(c1)[C@]1(C)CCO[C@@H]1N2C [(3) (-)-physovenine, (-)-physovenine, reference compound]	3.5 ± 1.4 nM	27.1 ± 0.8 nM	–	enzyme selectivity / preference (AChE vs BChE), in words [3]: inhibited AChE and BChE in vitro similarly at similar concentrations
Cc1ccccc1NC(=O)Oc1ccc2c(c1)[C@]1(C)CCN(C)[C@@H]1N2C [Ex. 7, (-)-2'-Methylphenylcarbamoyleseroline]	–	10.3 ± 1.6 nM	–	–
Cc1ccc(NC(=O)Oc2ccc3c(c2)[C@]2(C)CCN(C)[C@@H]2N3C)c(C)c1 [Ex. 8, (-)-2'-4'-dimethylphenylcarbamoyleseroline]	–	–	1820 ± 558 nM	IC50 [3]: 13.6 ± 1 nM
Cc1ccc(NC(=O)Oc2ccc3c(c2)[C@]2(C)CCN(C)[C@@H]2N3C)cc1 [Ex. 10, (-)-4'-methylphenylarbamoyleseroline]	–	139 ± 3.7 nM	251 ± 8.6 nM	–
CCc1cccc(CC)c1NC(=O)Oc1ccc2c(c1)[C@]1(C)CCN(C)[C@@H]1N2C [Ex. 11, (-)-2',6-diethylphenylcarbamoylescroline]	1070 ± 48 nM	1490 ± 49.8 nM	–	–
CCc1ccccc1NC(=O)Oc1ccc2c(c1)[C@]1(C)CCN(C)[C@@H]1N2C [Ex. 12, (-)-2'-ethylphenylcarbamoyleseroline]	–	–	2920 ± 537 nM	IC50 [3]: 9.7 ± 0.1 nM
CN1CC[C@@]2(C)c3cc(OC(=O)Nc4ccccc4)ccc3N(C)[C@@H]12 [Ex. 14, (-)-phenylcarbamoyleserolne]	–	–	–	lower concentration for inhibition of AChE than of BChE ([3]; human): 50 times
Cc1cc(C)c(NC(=O)Oc2ccc3c(c2)[C@]2(C)CCN(C)[C@@H]2N3C)c(C)c1 [Ex. 15, (-)-(-)-2',4',6'-trimethylphenylcarbamoyleseroline]	–	1290 ± 73.8 nM	3290 ± 885 nM	–
CN1CC[C@@]2(C)c3cc(OC(=O)Nc4ccccc4Cl)ccc3N(C)[C@@H]12 [Ex. 17, (-)-2'-chlorophenylcarbamoyleseroline]	1610 ± 86.4 nM	–	–	IC50 [3]: 496 ± 28.2 nM
CN1CC[C@@]2(C)c3cc(OC(=O)Nc4c(Cl)cccc4Cl)ccc3N(C)[C@@H]12 [Ex. 18, (-)-2',6'-dichlorophenylcarbamoylseroline]	425 ± 86.4 nM	–	–	IC50 [3]: 66.6 ± 1.8 nM
CN1c2ccc(OC(=O)Nc3ccccc3)cc2[C@]2(C)CCO[C@H]12 [Ex. 22, phenylcarbamate of (-)-physovenol]	700 ± 37 nM	–	–	enzyme selectivity / preference (AChE vs BChE), in words [3]: high preference for Ache; IC50 ([3]; AChE IC50): 11.2 ± 2.1 nM; IC50 ([3]; IC50 for AChE): 11 nM
Cc1ccccc1NC(=O)Oc1ccc2c(c1)[C@]1(C)CCO[C@@H]1N2C [Ex. 23, (-)-5-O-(2'-Methylphenylcarbamoyl)physovenol]	–	12.9 ± 0.8 nM	1560 ± 120 nM	–
CC(C)c1ccc(NC(=O)Oc2ccc3c(c2)[C@]2(C)CCO[C@@H]2N3C)cc1 [compound 24]	–	–	–	IC50 ([2]; read-out: IC50 for BChE (printed once as RChE)): 16.5 nM; enzyme selectivity / preference (AChE vs BChE), in words [3]: reverse enzyme specificity; IC50 ([3]; read-out: IC50 for AChE): 3800 nM
